“And” between values parts separate entries of the source, which are not always exact repeats. Equal entries are not always repeated. One block for each compound: values may come before it.
Tested on: 843126-344-R-J1-PDC complex spheroid viability
Assay: Anticancer human tumor 843126-344-R-J1-PDC patient-derived melanoma cell line growth inhibition [POLQ]
Conditions: for viability, T/C: stronger effect = lower value
Method: Multicellular complex tumor spheroid response to Polymerase (POL) inhibitors (novobiocin, ART-558, RP6685) in combination with a variety of drugs and investigational agents in selected tumor cell lines
The POL inhibitors (novobiocin, ART-558, and RP6685) were evaluated both individually and in combination with standard of care and investigational anticancer small molecules within a complex spheroid model of solid tumors. . Complex spheroids include a stromal component modeled by human endothelial cells (HUVEC) and fibroblasts modeled by human mesenchymal stem cells (MSCs). The concentration ranges selected for each drug and investigational agent were based upon clinically achievable concentrations if the clinical Cmax of the agent was known.
Compounds. The drugs and investigational agents: novobiocin (NSC847541), ART-558 (NSC835418), RP-6685 (NSC848927), peposertib (NSC802822), ceralasertib (NSC780249), elimusertib (NSC800525), camonsertib (NSC841442), AZD-1390 (NSC803789), olaparib (NSC753686), talazoparib (NSC767125), rucaparib (NSC756644), sotorasib (NSC818433), MRTX-1133 (NSC836407), SN-38 (NSC673596), topotecan (NSC609699), epotoside (NSC141540), doxorubicin (NSC123127), gemcitabine (NSC613327), 5-fluorouracil (NSC19893), paclitaxel (NSC125973), vemurafenib (NSC761431), MSA-2 (NSC828583), SN-011 (NSC837082), adavosertib (NSC754352), prexasertib (NSC758257), carboplatin (NSC241240) and oxaliplatin (NSC266046), were obtained from the National Cancer Institute (NCI) Developmental Therapeutics Program Chemical Repository (21). The FDA-approved anticancer drug set is available from the Developmental Therapeutics Program at https://dtp.cancer.gov/organization/dscb/obtaining/. […] The stock solutions were prepared in dimethyl sulfoxide (DMSO, Sigma-Aldrich, St. Louis, MO, cat. D2650), except for the platinum compounds which were prepared in saline (Quality Biological, Gaithersburg, MD, cat. 114-055-101), at 800-fold the tested concentration and stored at -70 degrees C prior to their use. All drugs and investigational agents were tested over a range starting from a high concentration at or near the clinical Cmax and decreasing in half-log increments. If the clinical Cmax for an agent had not been determined, the highest concentration tested was 10 microM, except for SN-38, which was tested at a high concentration of 1 microM.
Cell Culture. All cells were maintained in an incubator at 37 degrees C and 5% CO2 with 95% humidity. The PDC lines were cultured according to standard operating procedures established by the NCI PDMR (https://pdmr.cancer.gov). Table 3 of the manuscript, lists the cell lines along with the number of the three cell types plated to form the mct-spheroids and media for tumor cell growth. After thawing, all PDC lines, except 997537-175-T-J1-PDC and 415267-285-R-J2-PDC, were cultured in Matrigel-coated flasks prepared with a working solution of 1X Ham's F-12 nutrient mix, without supplementation (Thermo Fisher Scientific, cat. 11765054), 100 U/mL penicillin-streptomycin (Thermo Fisher Scientific, cat. 15140122), and 2.5% Matrigel (Corning Inc., Corning, NY, cat. 354248) for the first three passages. The two PDC lines 997537-175-T-J1-PDC and 415267-285-R-J2-PDC were cultured on uncoated flasks. The 857933-349-R-J2-PDC line was cultured in 6C/Colon 1B media containing advanced DMEM/F-12 (Thermo Fisher Scientific, cat. 12634028), 10 mM HEPES (Thermo Fisher Scientific, cat. 15630080), 1X GlutaMAX supplement (Thermo Fisher Scientific, cat. 35050061), 0.1 mg/mL primocin (InvivoGen, San Diego, CA, cat. ant-pm-2), 10% defined fetal bovine serum, heat inactivated (HyClone Laboratories Inc., Logan, UT, cat. SH30070.03HI), 50% L-WRN conditioned media (ATCC, cat. CRL-3276), 1.25 mM N-Acetyl-L-cysteine (Sigma-Aldrich, cat. A9165), 10 mM nicotinamide (Sigma-Aldrich, cat. N0636), 1X B-27 supplement (Thermo Fisher Scientific, cat. 17504044), 1X N-2 supplement (Thermo Fisher Scientific, cat. […]
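Wherever viability, T/C is given: spheroids exposed to drugs for seven days before readout.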

SMILES: CCCS(=O)(=O)Nc1ccc(F)c(C(=O)c2c[nH]c3ncc(-c4ccc(Cl)cc4)cc23)c1F
viability, T/C (compound 0.0316 µM): 101% and 86.2%
viability, T/C (compound 0.1 µM): 91.1% and 76%
viability, T/C (compound 0.316 µM): 87.4% and 96%
viability, T/C (compound 1 µM): 85.6% and 76.9%
viability, T/C (compound 3.16 µM): 72.9% and 74.4%
viability, T/C (compound 10 µM): 91.5% and 59.1%
IC50 (curve of compound): > 10000 nM

SMILES: CC1COCCN1c1cc(C2(S(C)(=N)=O)CC2)nc(-c2ccnc3[nH]ccc23)n1 (centres undefined)
viability, T/C (compound 0.0316 µM): 87.2% and 79.8% and 109%
viability, T/C (compound 0.1 µM): 93.7% and 82.8% and 102%
viability, T/C (compound 0.316 µM): 97.2% and 83.1% and 95%
viability, T/C (compound 1 µM): 81.4% and 97.7% and 89.5%
viability, T/C (compound 3.16 µM): 73.4% and 81.9% and 68%
viability, T/C (compound 10 µM): 49.9% and 55.9% and 55.2%
IC50 (curve of compound): > 10000 nM

SMILES: CNCc1ccc(-c2[nH]c3cc(F)cc4c3c2CCNC4=O)cc1
viability, T/C (compound 0.0316 µM): 99.4% and 100% and 94.8%
viability, T/C (compound 0.1 µM): 77.4% and 81.4% and 75.4%
viability, T/C (compound 0.316 µM): 87.7% and 100% and 97.9%
viability, T/C (compound 1 µM): 76% and 91.1% and 107%
viability, T/C (compound 3.16 µM): 76% and 108% and 89%
viability, T/C (compound 10 µM): 73.8% and 87% and 79.3%
IC50 (curve of compound): > 10000 nM

SMILES: CC1COCCN1c1cc(C2(O)CC3CCC(C2)O3)c2cnn(-c3ccn[nH]3)c2n1 (centres undefined)
viability, T/C (compound 0.0316 µM): 93.2% and 82.1% and 81.5%
viability, T/C (compound 0.1 µM): 66.9% and 57.4% and 68.6%
viability, T/C (compound 0.316 µM): 63.7% and 52.7% and 51.1%
viability, T/C (compound 1 µM): 38% and 44.3% and 35.9%
viability, T/C (compound 3.16 µM): 29.8% and 23.2% and 26%
viability, T/C (compound 10 µM): 20% and 15.3% and 18.9%
IC50 (curve of compound): 527 nM and 355 nM and 353 nM

SMILES: COc1cccc2c1C(=O)c1c(O)c3c(c(O)c1C2=O)CC(O)(C(=O)CO)CC3OC1CC(N)C(O)C(C)O1 (centres undefined) + COC1C(OC(N)=O)C(O)C(Oc2ccc3c(O)c(NC(=O)c4ccc(O)c(CC=C(C)C)c4)c(=O)oc3c2C)OC1(C)C
IC50 (curve of first compound, second compound 0.0316 µM): 332 nM
IC50 (curve of first compound, second compound 0.1 µM): 320 nM
IC50 (curve of first compound, second compound 0.316 µM): 295 nM
IC50 (curve of first compound, second compound 1 µM): 328 nM
IC50 (curve of first compound, second compound 3.16 µM): 404 nM
IC50 (curve of first compound, second compound 10 µM): 303 nM
viability, T/C (second compound 0.0316 µM, first compound 0.0316 µM): 80%
viability, T/C (second compound 0.0316 µM, first compound 0.1 µM): 81.3%
viability, T/C (second compound 0.0316 µM, first compound 0.316 µM): 50.5%
viability, T/C (second compound 0.0316 µM, first compound 1 µM): 14.6%
viability, T/C (second compound 0.0316 µM, first compound 3.16 µM): 4.71%
viability, T/C (second compound 0.0316 µM, first compound 10 µM): 3.86%
viability, T/C (second compound 0.1 µM, first compound 0.0316 µM): 84%
viability, T/C (second compound 0.1 µM, first compound 0.1 µM): 85%
viability, T/C (second compound 0.1 µM, first compound 0.316 µM): 49.2%
viability, T/C (second compound 0.1 µM, first compound 1 µM): 13.5%
viability, T/C (second compound 0.1 µM, first compound 3.16 µM): 3.97%
viability, T/C (second compound 0.1 µM, first compound 10 µM): 3.88%
viability, T/C (second compound 0.316 µM, first compound 0.0316 µM): 103%
viability, T/C (second compound 0.316 µM, first compound 0.1 µM): 71.8%
viability, T/C (second compound 0.316 µM, first compound 0.316 µM): 58%
viability, T/C (second compound 0.316 µM, first compound 1 µM): 14.1%
viability, T/C (second compound 0.316 µM, first compound 3.16 µM): 4.21%
viability, T/C (second compound 0.316 µM, first compound 10 µM): 4.82%
viability, T/C (second compound 1 µM, first compound 0.0316 µM): 98.3%
viability, T/C (second compound 1 µM, first compound 0.1 µM): 77.2%
viability, T/C (second compound 1 µM, first compound 0.316 µM): 56.2%
viability, T/C (second compound 1 µM, first compound 1 µM): 13%
viability, T/C (second compound 1 µM, first compound 3.16 µM): 4.55%
viability, T/C (second compound 1 µM, first compound 10 µM): 3.9%
viability, T/C (second compound 3.16 µM, first compound 0.0316 µM): 87.6%
viability, T/C (second compound 3.16 µM, first compound 0.1 µM): 77%
viability, T/C (second compound 3.16 µM, first compound 0.316 µM): 60.2%
viability, T/C (second compound 3.16 µM, first compound 1 µM): 16%
viability, T/C (second compound 3.16 µM, first compound 3.16 µM): 5.73%
viability, T/C (second compound 3.16 µM, first compound 10 µM): 4.31%
viability, T/C (second compound 10 µM, first compound 0.0316 µM): 88.6%
viability, T/C (second compound 10 µM, first compound 0.1 µM): 77.6%
viability, T/C (second compound 10 µM, first compound 0.316 µM): 49.9%
viability, T/C (second compound 10 µM, first compound 1 µM): 15%
viability, T/C (second compound 10 µM, first compound 3.16 µM): 4.64%
viability, T/C (second compound 10 µM, first compound 10 µM): 3.44%

SMILES: CCc1cc2c(N3CCc4c(cc(Cn5ccnc5)cc4-c4cn(C)nc4C(F)(F)F)C3=O)ccnc2c(OC)n1
viability, T/C (compound 0.0316 µM): 85.3% and 83.1% and 106%
viability, T/C (compound 0.1 µM): 78.4% and 81% and 75.8%
viability, T/C (compound 0.316 µM): 84.9% and 88.6% and 90.4%
viability, T/C (compound 1 µM): 76% and 83.2% and 91.5%
viability, T/C (compound 3.16 µM): 74.6% and 78.3% and 72.3%
viability, T/C (compound 10 µM): 53.8% and 58.4% and 66.4%
IC50 (curve of compound): > 10000 nM

IC50 (compound alone, run of 01/19/2024): > 10000 nM
SMILES: Nc1ccc(C#CCN(C(=O)Cc2ncc(C(F)(F)F)cc2C(F)(F)F)c2ccc(F)cc2)nn1
viability, T/C (compound 0.0316 µM): 98.2% [middle of 13 runs]
viability, T/C (compound 0.1 µM): 95.1% [middle of 13 runs]
viability, T/C (compound 0.316 µM): 97.8% [middle of 13 runs]
viability, T/C (compound 1 µM): 92.4% [middle of 12 runs]
viability, T/C (compound 3.16 µM): 90.4% [middle of 13 runs]
viability, T/C (compound 10 µM): 87.2% [middle of 13 runs]

Reference: PubChem BioAssay AID1963837 (Molecular Pharmacology Branch, DTP, NCI, 2024)
